US20040167199A1, “Methods of using and compositions comprising (-)-3-(3,4-dimethoxy-phenyl)-3-(1-oxo-1,3-dihydro-isoindol-2-yl)-propionamide” (Celgene Corporation, priority 2002, published 2004)

Tests used:
[1] = tested on: bovine PDE1; test: PDE selectivity, single concentration, PDE1; assay type: biochemical; settings: for PDE Specificity Ratio PDE1/PDE4: from above data
Procedure: (§1) The specificity of compounds for specific PDE's was assessed by testing at a single concentration (100 μM) against bovine PDE1, human PDE2, PDE3, and PDE5 from human platelets (Hidaka and Asano 1976, Biochem. Biophys. Acta 429:485, and Nicholsen et al. 1991, Trends Pharmaco. Sci. 12:19).

[2] = tested on: PDE3 from human platelets; test: PDE selectivity, single concentration, PDE3; assay type: biochemical; settings: for PDE Specificity Ratio PDE3/PDE4: from above data
Procedure: as §1

[3] = target: T1, PDE5 from human platelets (Homo sapiens, UniProt O76074); test: PDE selectivity, single concentration, PDE5; assay type: biochemical; settings: for PDE Specificity Ratio PDE5/PDE4: from above data; for inhibition at 100 µM: read-out: PDE5 (% inhib at 100 μM)
T1 construct: PDE3, and PDE5 from human platelets; from tissue; host or cells: human platelets
Procedure: as §1

[4] = target: human PDE2 (Homo sapiens, UniProt O00408); test: PDE selectivity, single concentration, PDE2; assay type: biochemical
Chain of human PDE2 (O00408 whole entry): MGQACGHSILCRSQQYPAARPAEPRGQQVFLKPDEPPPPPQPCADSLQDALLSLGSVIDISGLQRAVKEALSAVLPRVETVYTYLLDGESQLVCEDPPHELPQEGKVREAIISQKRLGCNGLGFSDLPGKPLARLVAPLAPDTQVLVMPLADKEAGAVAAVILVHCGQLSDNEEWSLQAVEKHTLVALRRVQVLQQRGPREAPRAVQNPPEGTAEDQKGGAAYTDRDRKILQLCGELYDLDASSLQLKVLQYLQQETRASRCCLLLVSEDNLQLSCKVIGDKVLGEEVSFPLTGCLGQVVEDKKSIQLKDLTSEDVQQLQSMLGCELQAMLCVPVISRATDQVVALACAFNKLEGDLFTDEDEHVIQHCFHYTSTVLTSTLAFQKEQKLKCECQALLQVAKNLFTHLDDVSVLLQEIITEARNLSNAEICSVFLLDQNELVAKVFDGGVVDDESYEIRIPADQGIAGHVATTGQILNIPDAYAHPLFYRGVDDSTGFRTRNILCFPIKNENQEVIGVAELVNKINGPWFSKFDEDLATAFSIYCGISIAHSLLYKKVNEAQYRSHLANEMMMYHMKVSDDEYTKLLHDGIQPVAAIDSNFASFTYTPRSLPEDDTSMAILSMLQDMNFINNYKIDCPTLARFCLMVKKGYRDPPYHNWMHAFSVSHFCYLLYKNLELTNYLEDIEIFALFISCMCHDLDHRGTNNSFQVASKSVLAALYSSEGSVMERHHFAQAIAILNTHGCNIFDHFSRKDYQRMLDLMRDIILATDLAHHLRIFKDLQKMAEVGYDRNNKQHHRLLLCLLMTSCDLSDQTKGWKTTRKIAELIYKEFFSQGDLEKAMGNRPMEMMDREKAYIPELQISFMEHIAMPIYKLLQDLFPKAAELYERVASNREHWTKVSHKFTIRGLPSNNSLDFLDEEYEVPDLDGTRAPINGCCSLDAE
Procedure: as §1

[5] = tested on: IL-1β-induced TNF-α production from human PBMC; test: IL-1β-induced TNF-α production from human PBMC; assay type: cell-based; settings: recombinant human IL-1β 50 ng/ml, 18 hours
Procedure: During the course of inflammatory diseases, TNF-α production is often stimulated by the cytokine IL-1β, rather than by bacterially derived LPS. Compounds are tested for the ability to inhibit EL-1β-induced TNF-α production from human PBMC as described above for LPS-induced TNF-α production, except that the PBMC are isolated from source leukocyte units (Sera-Tec Biologicals, North Brunswick, N.J., USA) by centrifugation on Ficoll-Paque Plus (Amersham Pharmacia, Piscataway, N.J., USA), plated in 96-well tissue culture plates at 3×10^5 cells/well in RPMI-1640 medium (BioWhittaker, Walkersville, Md., USA) containing 10% heat-inactivated fetal bovine serum (Hyclone), 2 mM L-glutamine, 100 U/ml penicillin, and […] (complete medium), pretreated with compounds at 10, 2, 0.4, 0.08, 0.016, 0.0032, 0.00064, and 0 μM in duplicate at a final DMSO concentration of 0.1% at 37° C. in a humidified incubator at 5% CO2 for 1 hour, then stimulated with 50 ng/ml recombinant human IL-1β (Endogen) for 18 hours.

[6] = tested on: PDE4 enzyme purified from U937 human monocytic cells; test: PDE4 inhibition (enzyme purified from U937 cells); assay type: biochemical; settings: 1 μM cAMP, 30 min at 30° C.
Procedure: PDE4 enzyme was purified from U937 human monocytic cells by gel filtration chromatography as previously described (Muller et al. 1998, Bioorg. & Med Chem Lett 8:2669-2674). Phosphodiesterase reactions were carried out in 50 mM Tris HCl pH 7.5, 5 mM MgCl2, 1 μM cAMP, 10 nM [^311)-cAMP for 30 min at 30° C., terminated by boiling, treated with 1 mg/ml snake venom, and separated using AG-IXS ion exchange resin (BioRad) as described (Muller et al. 1998, Bioorg. & Med Chem Lett 8:2669-2674). Reactions consumed less than 15% of available substrate.

[7] = tested on: LPS-induced TNF-α production from human PBMC; test: LPS-induced TNF-α production from human PBMC; assay type: cell-based; settings: LPS 100 ng/ml, 18-20 hours, ELISA
Procedure: Lipopolysaccharide (LPS) is an endotoxin produced by gram-negative bacteria such as E. coli which induces production of many pro-inflammatory cytokines, including TNF-α In peripheral blood mononuclear cells (PBMC), the TNF-α produced in response to LPS is derived from monocytes, which comprise approximately 5-20% of the total PBMC. Compounds were tested for the ability to inhibit LPS-induced TNF-α production from human PBMC as previously described (Muller et al. 1996, J. Med Chem. 39:3238). PBMC from normal donors were obtained by Ficoll Hypaque (Pharmacia, Piscataway, N.J., USA) density centrifugation. Cells were cultured in RPMI (Life Technologies, Grand Island, N.Y., USA) supplemented with 10% AB± human serum (Gemini Bio-products, Woodland, Calif., USA), 2 mM L-glutamine, 100 U/ml penicillin, and 100 μg/ml streptomycin (Life Technologies).
PBMC (2×10^5 cells) were plated in 96-well flat-bottom Costar tissue culture plates (Coming, N.Y., USA) in triplicate. Cells were stimulated with LPS (Sigma, St. Louis, Mo., USA) at 100 ng/ml in the absence or presence of compounds. Compounds (Celgene Corp., Warren, N.J., USA) were dissolved in DMSO (Sigma) and further dilutions were done in culture medium immediately before use. The final DMSO concentration in all samples was 0.25%. Compounds were added to cells 1 hour before LPS stimulation. […]

[8] = Pharmacokinetics after oral administration in female rats; settings: rat, in vivo, 80 mg/kg oral in aqueous CMC
From the text: Table III presents plasma concentration data (ng/mL) taken at 0.5 hr., 1 hr., 2 hrs., 4 hrs., 7 hrs., 10 hrs. and 24 hrs. following the administration, Cmax, Tmax and AUC.

Row | SMILES | PDE1 (% inhib at 100 μM) [1] | PDE Specificity Ratio PDE1/PDE4 [1] | PDE3 (% inhib at 100 μM) [2] | PDE Specificity Ratio PDE3/PDE4 [2] | PDE Specificity Ratio PDE5/PDE4 [3] | inhibition at 100 µM [3] | IC50 [5] | IC50 [6] | IC50 [7] | also measured
1 | COc1ccc(C(CC(N)=O)N2Cc3ccccc3C2=O)cc1OC (single isomer, unassigned; (+)) [Compound B, (+)-3-(3,4-dimethoxy-phenyl)-3-(1-oxo-1,3-dihydro-isoindol-2-yl)-propionamide] | 47% | ˜1 fold | 50% | ˜1 fold | >1 fold | 5% | 86 µM | 67 µM | 100 µM | PDE Specificity Ratio PDE2/PDE4 ([4]; from above data): >1 fold; inhibition at 100 µM ([4]; read-out: PDE2 (% inhib at 100 μM)): 22%
2 | COc1ccc(C(CC(N)=O)N2Cc3ccccc3C2=O)cc1OC (racemic) [Racemic Compound, 3-(3,4-dimethoxy-phenyl)-3-(1-oxo-1,3-dihydro-isoindol-2-yl)-propionamide] | 20% | >4.8 fold | 51% | ˜4.8 fold | >4.8 fold | 14% | 16 µM | 15 µM | 21 µM | concentration at 0 h ([8]; 0 hour, read-out: plasma concentration): 0 ng/mL; AUC [8]: 44200 ng·h/mL; Cmax [8]: 4910 ng/mL; Tmax [8]: 2 h; concentration at 0.5 h ([8]; 0.5 hour, read-out: plasma concentration): 3900 ng/mL; concentration at 1 h ([8]; 1 hour, read-out: plasma concentration): 4600 ng/mL; concentration at 2 h ([8]; 2 hours, read-out: plasma concentration): 4120 ng/mL; concentration at 4 h ([8]; 4 hours, read-out: plasma concentration): 2980 ng/mL; concentration at 7 h ([8]; 7 hours, read-out: plasma concentration): 2520 ng/mL; concentration at 10 h ([8]; 10 hours, read-out: plasma concentration): 2060 ng/mL; concentration at 24 h ([8]; 24 hours, read-out: plasma concentration): 9.2 ng/mL
